Laboratory results taken from patent US9296776B2, “Substituted nucleoside derivatives with antiviral and antimicrobial properties” (Eastern Virginia Medical School, priority 2007, dated 2016).
In brackets after ≈: the same amount, converted by molar mass. Read-outs that look alike come from different tables or passages of the source.

Assays:
Format in all cases: cell-based
[1] = tested on: Cell-associated HIV-1, SupT1 (IIIB); assay: Single-round infection assay, cell-associated virus SupT1 (IIIB); conditions: for IC50: Human immunodeficiency virus 1, IIIB
[2] = tested on: HIV-1 IIIB (cell-free virus); assay: microbe, parasite or virus in culture; conditions: for IC50: Human immunodeficiency virus 1, IIIB, read-out: IC50 Cell-Free Virus IIIB; for EC50 Cell-free HIV-1 (IIIB) / EC50: Table 8; for EC50: read-out: EC50 Cell-free HIV-1 (IIIB); for EC50 Cell-Free Virus IIIB: Table 6
[3] = tested on: HIV-1 BaL (cell-free virus); assay: Single-round infection assay, cell-free virus BaL; conditions: for IC50: Human immunodeficiency virus 1, BAL, read-out: IC50 Cell-Free Virus BaL; for EC50 Cell-Free Virus BaL: Table 6
[4] = SUP-T1, Table 1, 2 h incubation, wash, 48 h culture, read-out: IC50 Cell-Associated Virus SupT1 (IIIB)
[5] = Table 1, 2 h incubation, wash, 48 h culture
[6] = 2 h incubation, wash, 48 h culture

| IC50 Cell-Associated Virus SupT1 (IIIB) [1, 5] [µg/mL] | IC50 Cell-Free Virus IIIB [2, 5] [µg/mL] | IC50 Cell-Free Virus BaL [3, 5] [µg/mL] | EC50 Cell-free HIV-1 (IIIB) [2, 6] [µg/mL] | EC50 [2, 6] [µM] | Molecule | also measured |
| --- | --- | --- | --- | --- | --- | --- |
| – | – | – | – | – | Cc1cn([C@H]2C=C[C@@H](CO)O2)c(=O)[nH]c1=O [2′,3′-didehydro-2′,3′-dideoxythymidine, reference compound] | IC50 ([1]; SUP-T1, read-out: IC50 Cell-Associated Virus SupT1 (IIIB)): 30.5 µg/mL (≈ 136 µM); IC50 [2]: 6 µg/mL (≈ 26.8 µM); IC50 [3]: 6.3 µg/mL (≈ 28.1 µM) |
| – | – | – | – | – | Nc1nc(=O)n([C@H]2CS[C@@H](CO)O2)cc1F [2′,3′-dideoxy-5-fluoro-3′-thiacytidine, reference compound] | IC50 [1, 4]: 21.9 µg/mL (≈ 88.6 µM); IC50 [2, 5]: 0.48 µg/mL (≈ 1.94 µM); IC50 [3, 5]: 0.18 µg/mL (≈ 0.728 µM) |
| 44.9 (≈ 90.6 µM) | 3.8 (≈ 7.67 µM) | 2.6 (≈ 5.25 µM) | – | – | CCSCCCCCCCCCCC(=O)OC[C@H]1O[C@@H](n2cc(C)c(=O)[nH]c2=O)C[C@@H]1N=[N+]=[N-] [3′-azido-2′,3′-dideoxy-5′-O-(11-thioethylundecanoyl)thymidine] | – |
| >100 | 5.6 (≈ 10.6 µM) | 2.6 (≈ 4.92 µM) | – | – | Cc1cn([C@H]2C[C@H](N=[N+]=[N-])[C@@H](COC(=O)CCCCCCCCCCCBr)O2)c(=O)[nH]c1=O [3′-azido-2′,3′-dideoxy-5′-O-(12-bromododecanoyl)thymidine] | – |
| >100 | 8.8 (≈ 17.9 µM) | 2.2 (≈ 4.47 µM) | – | – | CCCCCCCCCCCCCCC(=O)OC[C@H]1O[C@@H](n2cc(C)c(=O)[nH]c2=O)C[C@@H]1N=[N+]=[N-] [3′-azido-2′,3′-dideoxy-5′-O-(pentadecanoyl)thymidine] | – |
| >100 | 1.5 (≈ 3.14 µM) | 2.4 (≈ 5.03 µM) | – | – | CCCCCCCCCCCCCC(=O)OC[C@H]1O[C@@H](n2cc(C)c(=O)[nH]c2=O)C[C@@H]1N=[N+]=[N-] [3′-azido-2′,3′-dideoxy-5′-O-(tetradecanoyl)thymidine] | – |
| >100 | 57.8 (≈ 125 µM) | 12.8 (≈ 27.6 µM) | – | – | CCCCCCCCCCCCCCOC[C@H]1O[C@@H](n2cc(C)c(=O)[nH]c2=O)C[C@@H]1N=[N+]=[N-] [3′-azido-2′,3′-dideoxy-5′-O-(tetradecyl)thymidine] | – |
| >100 | 0.2 (≈ 0.819 µM) | 0.1 (≈ 0.409 µM) | 0.2 (≈ 0.819 µM) | 0.8 | Cc1cn([C@H]2C[C@H](F)[C@@H](CO)O2)c(=O)[nH]c1=O [3′-fluoro-2′,3′-deoxythymidine (FLT), 3′-fluoro-2′,3′-deoxythymidine, reference compound] | – |
| >100 | 0.5 (≈ 1.03 µM) | 0.1 (≈ 0.206 µM) | – | – | CCCCCCCCCCCCC(OC)C(=O)OC[C@H]1O[C@@H](n2cc(C)c(=O)[nH]c2=O)C[C@@H]1F (stereo partly shown) [3′-fluoro-2′,3′-dideoxy-5′-O-(2-methoxytetradecanoyl)thymidine] | – |
| >100 | 5.4 (≈ 11.4 µM) | 2.1 (≈ 4.44 µM) | – | – | CCCCCSCCCCCCCC(=O)OC[C@H]1O[C@@H](n2cc(C)c(=O)[nH]c2=O)C[C@@H]1F [3′-fluoro-2′,3′-dideoxy-5′-O-(9-thiatertradecanoyl)thymidine] | – |
| >100 | 0.9 (≈ 1.78 µM) | <0.1 | – | – | Cc1cn([C@H]2C[C@H](F)[C@@H](COC(=O)CCCCCCCCCCCBr)O2)c(=O)[nH]c1=O [3′-fluoro-2′,3′-dideoxy-5′-O-(12-bromododecanoyl)thymidine] | – |
| >100 | 79.1 (≈ 180 µM) | 77.3 (≈ 175 µM) | – | – | CCCCCCCCCCCCCCOC[C@H]1O[C@@H](n2cc(C)c(=O)[nH]c2=O)C[C@@H]1F [3′-fluoro-2′,3′-dideoxy-5′-O-(tetradecyl)thymidine] | – |
| 10.0 (≈ 22.3 µM) | 3.0 (≈ 6.7 µM) | 1.4 (≈ 3.13 µM) | – | – | Cc1cn([C@H]2C=C[C@@H](COC(=O)CCCCCCCCCCCN=[N+]=[N-])O2)c(=O)[nH]c1=O [5′-O-(12-azidodecanoyl)-2′,3′-didehydro-2′,3′-dideoxythymidine] | – |
| – | – | – | – | – | [N-]=[N+]=NCCCCCCCCCCCC(=O)OC[C@H]1O[C@@H](n2ccc(N)nc2=O)CS1 [5′-O-(12-azidododecanoyl)-2′,3′-dideoxy-3′-thiacytidine] | IC50 [1, 4]: > 100 µg/mL; IC50 [2, 5]: 0.88 µg/mL (≈ 1.94 µM); IC50 [3, 5]: 0.08 µg/mL (≈ 0.177 µM) |
| – | – | – | – | – | [N-]=[N+]=NCCCCCCCCCCCC(=O)OC[C@H]1O[C@@H](n2cc(F)c(N)nc2=O)CS1 [5′-O-(12-azidododecanoyl)-2′,3′-dideoxy-5-fluoro-3′-thiacytidine] | IC50 [1, 4]: 4.3 µg/mL (≈ 9.14 µM); IC50 [2, 5]: 0.39 µg/mL (≈ 0.829 µM); IC50 [3, 5]: 0.11 µg/mL (≈ 0.234 µM) |
| 21.7 (≈ 42.7 µM) | 6.7 (≈ 13.2 µM) | 2.7 (≈ 5.32 µM) | – | – | Cc1cn(C2C=CC(COC(=O)CCCCCCCCCCCSCCN=[N+]=[N-])O2)c(=O)[nH]c1=O (stereo not shown) [5′-O-(12-thioethylazidodecanoyl)-2′,3′-didehydro-2′,3′-dideoxythymidine] | – |
| – | – | – | – | – | CCSCCCCCCCCCCCC(=O)OC[C@H]1O[C@@H](n2ccc(N)nc2=O)CS1 [5′-O-(13-thiapentadecanoyl)-2′,3′-dideoxy-3′-thiacytidine] | IC50 [1, 4]: > 100 µg/mL; IC50 [2, 5]: 1.1 µg/mL (≈ 2.33 µM); IC50 [3, 5]: < 0.1 µg/mL |
| – | – | – | – | – | CCSCCCCCCCCCCCC(=O)OC[C@H]1O[C@@H](n2cc(F)c(N)nc2=O)CS1 [5′-O-(13-thiapentadecanoyl)-2′,3′-dideoxy-5-fluoro-3′-thiacytidine] | IC50 [1, 4]: 2.4 µg/mL (≈ 4.9 µM); IC50 [2, 5]: 0.024 µg/mL (≈ 0.049 µM); IC50 [3, 5]: 0.02 µg/mL (≈ 0.0408 µM) |
| >100 | 34 (≈ 78.2 µM) | 5.4 (≈ 12.4 µM) | – | – | CCCCCCCCCCCCCC(=O)OC[C@@H]1C=C[C@H](n2cc(C)c(=O)[nH]c2=O)O1 [5′-O-myristoyl-2′,3′-didehydro-2′,3′-dideoxythymidine] | – |
| – | – | – | – | – | CCCCCCCCCCCCCC(=O)OC[C@H]1O[C@@H](n2ccc(N)nc2=O)CS1 [5′-O-tetradecanoyl-2′,3′-dideoxy-3′-thiacytidine] | IC50 [1, 4]: 27.3 µg/mL (≈ 62.1 µM); IC50 [2, 5]: 0.3 µg/mL (≈ 0.682 µM); IC50 [3, 5]: 0.082 µg/mL (≈ 0.187 µM) |
| – | – | – | – | – | CCCCCCCCCCCCCC(=O)OC[C@H]1O[C@@H](n2cc(F)c(N)nc2=O)CS1 [5′-O-tetradecanoyl-2′,3′-dideoxy-5-fluoro-3′-thiacytidine] | IC50 [1, 4]: 1.7 µg/mL (≈ 3.71 µM); IC50 [2, 5]: 0.056 µg/mL (≈ 0.122 µM); IC50 [3, 5]: 0.033 µg/mL (≈ 0.0721 µM) |
| – | – | – | 10.7 (≈ 17.1 µM) | 17.1 | CC(=O)NC(CCC(=O)OC[C@H]1O[C@@H](n2cc(C)c(=O)[nH]c2=O)C[C@@H]1F)C(=O)OC[C@@H]1O[C@H](n2ccc(N)nc2=O)CS1 (stereo partly shown) [KPH-96, FLT(Glutamyl)-3TC] | – |
| – | – | – | 1.6 (≈ 2.01 µM) | 2 | CCCCCCCCCCCCCC(=O)NC(CCC(=O)OC[C@H]1O[C@@H](n2cc(C)c(=O)[nH]c2=O)C[C@@H]1F)C(=O)OC[C@@H]1O[C@H](n2ccc(N)nc2=O)CS1 (stereo partly shown) [KPH-97] | – |
| – | – | – | 9.0 (≈ 13.5 µM) | 13.5 | CC(=O)NC(CCC(=O)OC[C@H]1O[C@@H](n2cc(C)c(=O)[nH]c2=O)C[C@@H]1F)C(=O)OC[C@H]1O[C@@H](n2cc(C)c(=O)[nH]c2=O)C[C@@H]1N=[N+]=[N-] (stereo partly shown) [KPH-98, FLT(Glutamyl)-AZT] | – |
| – | – | – | 2.0 (≈ 2.4 µM) | 2.4 | CCCCCCCCCCCCCC(=O)NC(CCC(=O)OC[C@H]1O[C@@H](n2cc(C)c(=O)[nH]c2=O)C[C@@H]1F)C(=O)OC[C@H]1O[C@@H](n2cc(C)c(=O)[nH]c2=O)C[C@@H]1N=[N+]=[N-] (stereo partly shown) [KPH-99] | – |
| – | – | – | 4.9 (≈ 5.99 µM) | 6 | CCCCCCCCCCCCCC(=O)NC(CCC(=O)OC[C@H]1O[C@@H](n2cc(C)c(=O)[nH]c2=O)C[C@@H]1N=[N+]=[N-])C(=O)OC[C@@H]1O[C@H](n2ccc(N)nc2=O)CS1 (stereo partly shown) [KPH-910] | – |
| – | – | – | 7.8 (≈ 12 µM) | 12 | CC(=O)NC(CCC(=O)OC[C@H]1O[C@@H](n2cc(C)c(=O)[nH]c2=O)C[C@@H]1N=[N+]=[N-])C(=O)OC[C@@H]1O[C@H](n2ccc(N)nc2=O)CS1 (stereo partly shown) [KPH-911, AZT(Glutamyl)-3TC] | – |
| – | – | – | – | – | Suramin-3′-azido-2′,3′-dideoxythymidine [Suramin-AZT] | EC50 Cell-Free Virus IIIB [2]: 19.4 µg/mL; EC50 Cell-Free Virus BaL [3]: 7.3 µg/mL |
| – | – | – | – | – | Suramin-3′-fluoro-2′,3′-dideoxythymidine [Suramin-FLT] | EC50 Cell-Free Virus IIIB [2]: 23.6 µg/mL; EC50 Cell-Free Virus BaL [3]: 6.2 µg/mL |

| Molecule | IC50 Cell-Associated Virus SupT1 (IIIB) [1, 5] [µg/mL] | IC50 Cell-Free Virus IIIB [2, 5] [µg/mL] | IC50 Cell-Free Virus BaL [3, 5] [µg/mL] | EC50 Cell-free HIV-1 (IIIB) [2, 6] [µg/mL] | EC50 [2, 6] [µM] | also measured |
| --- | --- | --- | --- | --- | --- | --- |
| Cc1cn([C@H]2C[C@H](F)[C@@H](COC(=O)CCCCCCCCCCCN)O2)c(=O)[nH]c1=O [3′-fluoro-2′,3′-dideoxy-5′-O-(12-aminododecanoyl)thymidine] | – | 0.67 (≈ 1.52 µM) | – | – | – | – |
| Cc1cn([C@H]2C[C@H](F)[C@@H](COC(=O)CCC(=O)OC[C@H]3O[C@@H](n4cc(C)c(=O)[nH]c4=O)C[C@@H]3F)O2)c(=O)[nH]c1=O [KPH-912, FLT-succinate-FLT] | – | – | – | 2.1 (≈ 3.68 µM) | 3.7 | – |
| Cc1cn([C@H]2C[C@H](N=[N+]=[N-])[C@@H](COC(=O)CCC(=O)OC[C@H]3O[C@@H](n4cc(C)c(=O)[nH]c4=O)C[C@@H]3N=[N+]=[N-])O2)c(=O)[nH]c1=O [KPH-913, AZT-succinate-AZT] | – | – | – | 8.6 (≈ 13.9 µM) | 13.9 | – |
| Cc1cn([C@H]2C[C@H](N=[N+]=[N-])[C@@H](COC(=O)CCC(NC(=O)CCC(=O)OC[C@H]3O[C@@H](n4cc(C)c(=O)[nH]c4=O)C[C@@H]3F)C(=O)OC[C@@H]3O[C@H](n4ccc(N)nc4=O)CS3)O2)c(=O)[nH]c1=O (stereo partly shown) [KPH-914, FLT-Succinate-AZT(glutamyl)-3TC] | – | – | – | 0.9 (≈ 0.964 µM) | 0.96 | – |
